Values quoted from earlier work, collected in patent US20040062739A1, “Use of carbohydrates to improve skin barrier function” (SOCIETE L'OREAL S.A., priority 2000, published 2004).

Key:
Set-up in all cases: key: −: no activity; ε, +, ++: specific activity; ε, +, ++: specific activity; ε, +, ++: specific activity
Conditions in all cases: glycosidase sold by Clonezyme; cited from earlier work
GLY-01 = system: GLY-01
GLY-06 = system: GLY-06
GLY-05 = system: GLY-05
GLY-03 = system: GLY-03
GLY-09 = system: GLY-09
GLY-04 = system: GLY-04
GLY-02 = system: GLY-02
GLY-08 = system: GLY-08
GLY-10 = system: GLY-10
GLY-07 = system: GLY-07

| Structure (SMILES) | substrate specificity GLY-01 (GLY-01) | substrate specificity GLY-06 (GLY-06) | substrate specificity GLY-05 (GLY-05) | substrate specificity GLY-03 (GLY-03) | substrate specificity GLY-09 (GLY-09) | substrate specificity GLY-04 (GLY-04) | substrate specificity GLY-02 (GLY-02) | substrate specificity GLY-08 (GLY-08) | substrate specificity GLY-10 (GLY-10) | substrate specificity GLY-07 (GLY-07) |
| --- | --- | --- | --- | --- | --- | --- | --- | --- | --- | --- |
| CC(=O)NC1C(O)CC(Oc2ccc([N+](=O)[O-])cc2)(C(=O)O)OC1C(O)C(O)CO [α-D-N-acetylneuramide] | − | − | − | − | − | − | − | − | − | − |
| OC[C@H]1O[C@H](O)[C@H](O)[C@@H](O)[C@H]1O [α-D-galactose] | − | − | − | − | − | − | − | − | + | − |
| OC[C@H]1O[C@H](O)[C@H](O)[C@@H](O)[C@@H]1O [α-D-glucose] | ++ | ++ | ++ | ++ | ++ | ++ | ++ | ++ | − | ++ |
| OC[C@H]1O[C@H](O)[C@@H](O)[C@@H](O)[C@@H]1O [α-D-mannose] | − | − | − | − | − | − | − | − | − | − |
| C[C@@H]1O[C@@H](O)[C@@H](O)[C@H](O)[C@@H]1O [α-L-fucose] | − | − | − | − | − | − | − | − | − | − |
| C[C@@H]1O[C@@H](O)[C@H](O)[C@H](O)[C@H]1O [α-L-rhamnose] | − | − | − | − | − | − | − | − | − | − |
| CC(=O)NC1C(OC2C(CO)OC(Oc3ccc([N+](=O)[O-])cc3)C(NC(C)=O)C2O)OC(CO)C(O)C1O [β-D-N-acetylch obloside] | − | − | − | − | − | − | − | − | − | − |
| OC[C@H]1O[C@H](O[C@H]2[C@H](O)[C@@H](O)[C@H](O)O[C@@H]2CO)[C@H](O)[C@@H](O)[C@@H]1O [β-D-cellobiose] | − | + |  | ε | ε | ε | ++ | ε | − | + |
| C[C@H]1O[C@@H](O)[C@H](O)[C@@H](O)[C@H]1O [β-D-fucose] | − | ++ | ++ | ++ | ++ | ++ | ++ | + | − | ++ |
| OC[C@H]1O[C@@H](O)[C@H](O)[C@@H](O)[C@H]1O [β-D-galactose] | − | ε | + | ε | − | + | ++ | + | − | ε |
| OC[C@H]1O[C@@H](O)[C@H](O)[C@@H](O)[C@@H]1O [β-D-glucose] | − | − | − | − | − | − | − | − | − | − |
| O=C(O)[C@H]1O[C@@H](Oc2ccc([N+](=O)[O-])cc2)[C@H](O)[C@@H](O)[C@@H]1O [β-D-glucuronide] | − | − | − | − | − | − | − | − | − | ε |
| OC[C@H]1O[C@@H](O[C@H]2[C@H](O)[C@@H](O)[C@H](O)O[C@@H]2CO)[C@H](O)[C@@H](O)[C@H]1O [β-D-lactose] | − | + | − | ε | − | − | + | − | − | ε |
| OC[C@H]1O[C@@H](O)[C@@H](O)[C@@H](O)[C@@H]1O [β-D-mannose] | − | + | − | − | + | − | ε | − | − | + |
| O[C@@H]1[C@@H](O)[C@H](O)OC[C@H]1O [β-D-xylose] | ε | ε | ε | − | ε | ε | + | ε | − | ε |
| C[C@@H]1O[C@H](O)[C@@H](O)[C@H](O)[C@@H]1O [β-L-fucose] | − | − | − | − | − | − | − | − | − | − |
